Results: US20070219224A1, “Compositions and Methods Relating to Pyrimidine Synthesis Inhibitors” (UAB RESEARCH FOUNDATION, THE, priority 2004, published 2007)
“Also recorded” adds a separate entry of the source. Marks after values point to notes of the source that are not given here.

Legend:
RSV-infected BALB/c mice [1] = assay: Nasal potential difference (NPD, NPDAMIL); format: in vivo; conditions: leflunomide throughout the infection period
Procedure: Measurement of nasal potential difference. The potential difference across the nares of anesthetized mice (with the tail as reference) was measured as previously described Grubb et al., (1994) “Hyperabsorption of Na+ and raised Ca(2+)-mediated Cl-secretion in nasal epithelia of CF mice,” Am. J. Physiol 266:C1478-C1483. A baseline NPD was recorded during perfusion of the nasal epithelium with lactated Ringer's solution. The amiloride-sensitive component of NPD (NPDAMIL) was determined by perfusion with lactated Ringer's solution containing 100 μM amiloride. Current pulses of ±60 nA were applied across the epithelium by a 12V battery in series with a 200 MΩ resistor. Changes in NPD in response to the current pulses (proportional to nasal transepithelial resistance, NRte) were recorded (ΔNPD).
(§1) Systemic inhibition of de novo pyrimidine and purine synthesis. Leflunomide (5-methylisoxazole-4-[4-trifluoromethyl]carboxanilide, 35 mg/kg in distilled water containing 1% methylcellulose) was administered once daily by oral gavage in a volume of 300 μl/mouse for 8 days prior to infection, then throughout the infection period. Vehicle controls were gavaged with an equivalent volume of 1% methylcellulose in distilled water. Uridine (1 g/kg in 0.9% NaCl) was administered by i.p. injection every 12 hours in a volume of 100 μl (8). […]

uninfected BALB/c mice = assay: Alveolar fluid clearance (AFC) in uninfected or mock-infected mice; format: in vivo; conditions: for effect on AFC in uninfected / normal (mock-infected) mice (in words): leflunomide oral gavage
Procedure: Systemic inhibition of de novo pyrimidine and purine synthesis. […] Vehicle controls were gavaged with an equivalent volume of 1% methylcellulose in distilled water. Uridine (1 g/kg in 0.9% NaCl) was administered by i.p. injection every 12 hours in a volume of 100 μl (8). […]
(§2) AFC studies were performed on anesthetized, ventilated BALB/c mice with normal body temperature and blood gases, over a 30 minute period after intratracheal instillation of 0.3 ml of isosmolar NaCl containing 5% fatty acid-free BSA. The number of mice analyzed per group is listed in the relevant bar of each graph.

RSV-infected BALB/c mice [2] = assay: Lung water content (wet:dry weight ratio) after RSV infection; format: in vivo; conditions: day 2, systemic treatment
Procedure: (§3) Preparation of viral inocula and infection of mice. Preparation of viral stocks and intranasal infection of eight to twelve week-old pathogen-free BALB/c mice of either sex with RSV strain A2 (10^6 PFU in 100 μl) were performed as described in Davis et al., “Nucleotide-mediated inhibition of alveolar fluid clearance in BALB/c mice after respiratory syncytial virus infection,” Am. J. Physiol. Lung Cell Mol. Physiol. 286:L112-L120. (2004). Data for each experimental group was derived from a minimum of 2 independent infections.
as §1, with “water.” for “water. Uridine (1 g/kg in 0.9% NaCl) was administered by i.p. injection every 12 hours in a volume of 100 μl (8).”

RSV-infected BALB/c mice [3] = assay: Alveolar fluid clearance (AFC) in RSV-infected mice at day 2 p.i.; format: in vivo; conditions: for effect on RSV-mediated inhibition of AFC at d2 (in words): systemic treatment (leflunomide oral gavage; uridine, 6-MP i.p.)
Procedure: Preparation of viral inocula and infection of mice. […] J. Physiol. Lung Cell Mol. Physiol. […] Data for each experimental group was derived from a minimum of 2 independent infections.
(§4) Systemic inhibition of de novo pyrimidine and purine synthesis. Leflunomide (5-methylisoxazole-4-[4-trifluoromethyl]carboxanilide, 35 mg/kg in distilled water containing 1% methylcellulose) was administered once daily by oral gavage in a volume of 300 μl/mouse for 8 days prior to infection, then throughout the infection period. Vehicle controls were gavaged with an equivalent volume of 1% methylcellulose in distilled water.
To systemically block de novo pyrimidine synthesis, mice were gavaged once daily for 8 days with […] of the dihydro-orotate reductase (DHOR) inhibitor leflunomide ([…] suspended in 1% methylcellulose) or vehicle prior to infection, then at 0 and 24 hours p.i. AFC studies were performed at 48 hours p.i., with no additions to the AFC instillate.
as §2

RSV strain A2 = assay: RSV replication in mouse lungs; format: in vivo, Respiratory syncytial virus; conditions: for virus replication in lung tissue at d2: RSV-infected mice, day 2 p.i., systemic treatment
Procedure: as §3
as §4, with “water. […]” for “water.”

UTP/ATP content of BALF = assay: Measurement of nucleotides (UTP/ATP content) in BALF of RSV-infected mice; format: in vivo, BALB/c mice
Procedure: as §3
(§5) Bronchoalveolar lavage. Bronchoalveolar lavage fluid (BALF) was collected as previously described in Davis et al., (2004), using 1 ml of sterile normal saline for cytokine ELISAs, or 0.3 ml of sterile saline for nucleotide assays. Lavagates were centrifuged to remove cells and supernatants stored at −80° C.
Measurement of nucleotides in BALF. Endogenous nucleotidases in BALF were heat denatured (100° C., 3 minutes) and UTP/ATP content measured using the […] and luciferine-luciferase assays, respectively.
as §4, with “water. […]” for “water.”

[4] = test system: IFN-α, IL-1β, KC, TNF-α in BALF; assay: Measurement of proinflammatory cytokines in BALF (ELISA); format: in vivo, BALB/c mice; conditions: RSV-infected mice, d2
Procedure: as §3, §5
as §4, with “water. […].” for “water.”
Measurement of proinflammatory cytokines in BALF. Cytokine levels were determined using Quantikine M ELISA kits (R & D Systems), in accordance with manufacturer's instructions.

[5] = d2, leflunomide 35 mg/kg oral gavage once daily, uridine 1 g/kg i.p. every 12 hours

Cc1oncc1C(=O)Nc1ccc(C(F)(F)F)cc1 [Leflunomide, 5-methylisoxazole-4-[4-trifluoromethyl]carboxanilide]
basal NPD and NPDAMIL (RSV-infected BALB/c mice [1]): completely prevented RSV-induced declines in basal NPD and NPDAMIL
effect on AFC in uninfected / normal (mock-infected) mice (in words) (uninfected BALB/c mice): no detrimental effect on AFC
effect on AFC in uninfected / normal (mock-infected) mice (in words) (uninfected BALB/c mice; listed as LEF): no effect on AFC
effect on AFC in uninfected / normal (mock-infected) mice (in words) (uninfected BALB/c mice; listed as leflunomide): significant inhibition of AFC
AFC30BASAL (mean % basal AFC after 30 minutes ± SE) (uninfected BALB/c mice; mock-infected mice, leflunomide 5 mg/kg oral gavage once daily): 33.16 ± 2.40 %
AFC (mean % AFC ± SE) (uninfected BALB/c mice; uninfected mice, leflunomide-treated): 29.98 ± 1.5 %
lung water content (wet:dry weight ratio) (in words) (RSV-infected BALB/c mice [2]): normalization of lung wet:dry weight ratios
lung water content (wet:dry weight ratio) (in words) (RSV-infected BALB/c mice [2]; listed as LEF): reverses RSV-induced increased in lung water content
lung water content (wet:dry weight ratio) (in words) (RSV-infected BALB/c mice [2]; listed as leflunomide): restored normal lung wet:dry weight ratios
amiloride-sensitive part of AFC (RSV-infected BALB/c mice [3]; RSV-infected leflunomide-treated mice at d2 (61% in uninfected, −8% in untreated mice at d2)): 57%
AFC30BASAL (mean % basal AFC after 30 minutes ± SE) (RSV-infected BALB/c mice [3]; RSV-infected mice, day 2 p.i., leflunomide 5 mg/kg oral gavage once daily, uridine 1 mg/kg i.p. q12h): 33.4 ± 3.00 %
effect on RSV-mediated inhibition of AFC at d2 (in words) (RSV-infected BALB/c mice [3]): blocked RSV-induced inhibition of AFC
effect on RSV-mediated inhibition of AFC at d2 (in words) (RSV-infected BALB/c mice [3]; listed as LEF): reverses RSV-mediated inhibition of AFC
effect on RSV-mediated inhibition of AFC at d2 (in words) (RSV-infected BALB/c mice [3]; listed as leflunomide): prevented RSV-induced inhibition of AFC; also recorded: reversed the inhibitory effect of RSV on AFC
virus replication in lung tissue at d2 (RSV strain A2): unaffected
virus replication in lung tissue at d2 (RSV strain A2; listed as LEF): no effect on virus replication
virus replication at d8, treatment continued (RSV strain A2; leflunomide continued throughout the 8 day infection period): persisted at high levels
virus replication at d8, treatment discontinued (RSV strain A2; leflunomide discontinued after d2): only minimally increased
effect on BALF nucleotide (UTP, ATP) levels (in words) (UTP/ATP content of BALF; d2): No increase in BALF nucleotide levels was detected; also recorded: reduced BALF content of both nucleotides to levels below those in untreated, uninfected mice
ATP, mean nucleotide concentration in BALF ± SE (UTP/ATP content of BALF; [5]): 6 ± 1 nmol/L
UTP, mean nucleotide concentration in BALF ± SE (UTP/ATP content of BALF; [5]): 5 ± 2 nmol/L
BALF proinflammatory cytokine levels (IFN-α, IL-1β, KC, TNF-α) (in words) [4]: significantly reduced
BALF proinflammatory cytokine levels (IFN-α, IL-1β, KC, TNF-α) (in words) ([4]; listed as LEF): significant reduction
IFN-α, mean cytokine concentration in BALF ± SE ([4]; systemic treatment): 72 ± 12 pg/mL
IL-1β, mean cytokine concentration in BALF ± SE ([4]; systemic treatment): 20 ± 8 pg/mL
KC, mean cytokine concentration in BALF ± SE ([4]; systemic treatment): 425 ± 58 pg/mL
TNF-α, mean cytokine concentration in BALF ± SE ([4]; systemic treatment): 0*** pg/ml
